Data: US9341619B2, “Hyposialylation disorders” (THE UNITED STATES OF AMERICA, as representated by the …, priority 2013, dated 2016)

Tested on: sialylation of core 1 O-linked glycans of plasma glycoproteins (T/ST ratio)
Experiment: Plasma T/ST ratio (T-antigen to monosialylated ST-antigen) by LC-MS/MS in treated GNE myopathy patients
Assay type: in vivo, human
Description: The quantification of the T/ST ratio was carried out using the O-glycan quantification methods disclosed in Liu et al. Mol Genet Metab 106, 442-454 (2012). Briefly, O-linked glycans from human serum or plasma total glycoproteins were released by sodium hydroxide with sodium borohydrate and desalted by ion-exchange column and then permethylated before the quantity of T-antigen and monosialyl ST-antigen was measured using LC-MS/MS method. Plasma samples from 40 normal controls were used to establish the normal range for the T/ST ratio at <0.056. A cut-off of 0.06 was used to diagnose hyposialylation of O-linked protein glycosylation in human plasma or serum.
O-glycans were released from plasma glycoproteins and prepared for analysis essentially as described by Carlson (J Biol Chem 243: 616-626, 1968; Liu et al. Mol Genet Metab 106, 442-454 (2012)), with modifications as described. An internal standard (1250 pmol raffinose in 5 μL) was added to 10 μL of plasma and 65 μl water for a final volume of 100 μL. Next, 100 μL of freshly prepared 2M […] in 0.1M sodium hydroxide was added to denature the serum proteins and release the O-glycans; the mixture was incubated at 45° C. for 16 hours to ensure complete reaction. The reaction was neutralized by drop wise addition of 1.6 mL of a 0.25M acetic acid-methanol solution, and the O-glycans were extracted in methanol. […]

SMILES | T/ST ratio after sialic acid treatment (one GNE myopathy patient (NH00016), sialic acid received one month before the test, cut-off 0.06) | T/ST ratio range under ManNAc (one GNE myopathy patient (SIA79) self-administering off-label ManNAc, abnormal range 0.06 or higher)
CC(=O)N[C@@H]1C(O)C[C@](O)(C(=O)O)OC1[C@H](O)[C@H](O)CO (stereo in doubt) [sialic acid, N-acetylneuraminic acid] | 0.05 | 
CC(=O)N[C@H]1[C@@H](O)[C@H](O)[C@@H](CO)O[C@H]1O [ManNAc, N-acetyl-D-mannosamine] |  | normal range
